Patent publication US20060182771A1, “Formulations for ocular treatment” (priority 2005, published 2006)

Assay: Concentration of rapamycin in the vitreous of rabbit eyes after intravitreal injection of the self-emulsifying formulation (LCMS)
Assay type: in vivo, New Zealand white rabbits
Details: full vitreous homogenized, average of four eyes
Description: 50 μl of the formulation described in Example 1 were injected into the vitreous of the eye of New Zealand white rabbits. The full vitreous, which included the area into which the self-emulsifying formulation was injected, was homogenized and analyzed at 1, 5, 24, 72 and 168 hours for the concentration of rapamycin remaining therein. The average concentration of the vitreous was calculated by dividing the mass of rapamycin measured by the volume of vitreous analyzed. The analysis was by liquid chromatography mass spectroscopy (LCMS). Each timepoint represents the average of two eyes of each of two rabbits (four eyes at each timepoint).
The average concentration of rapamycin at 1, 5, 24, 72 and 168 hours was about 347, about 401, about 273, about 18, and about 1 μg/μl, respectively.

- average concentration of rapamycin in the vitreous (1 hour after injection of 50 μl of the Example 1 formulation into the vitreous): about 347 μg/μl
- average concentration of rapamycin in the vitreous (5 hours after injection of 50 μl of the Example 1 formulation into the vitreous): about 401 μg/μl
- average concentration of rapamycin in the vitreous (24 hours after injection of 50 μl of the Example 1 formulation into the vitreous): about 273 μg/μl
- average concentration of rapamycin in the vitreous (72 hours after injection of 50 μl of the Example 1 formulation into the vitreous): about 18 μg/μl
- concentration at 168 h (New Zealand white, rabbit, vitreous (full vitreous homogenate), other: intravitreal injection, 168 hours after injection of 50 μl of the Example 1 formulation into the vitreous): ~1000 µg/mL
Structure (SMILES): CO[C@H]1C[C@@H]2CC[C@@H](C)[C@@](O)(O2)C(=O)C(=O)N2CCCC[C@H]2C(=O)O[C@H]([C@H](C)C[C@@H]2CC[C@@H](O)[C@H](OC)C2)CC(=O)[C@H](C)/C=C(\C)[C@@H](O)[C@@H](OC)C(=O)[C@H](C)C[C@H](C)/C=C/C=C/C=C/1C [rapamycin]
